Test results reported in US10369138B2, “Monobactam organic compounds for the treatment of bacterial infections” (Novartis AG, priority 2014, dated 2019).
In brackets after ≈: the same amount, converted by molar mass. Like-named read-outs stand apart in the source and are kept apart here.

Legend:
E. coli strain 25922 = experiment: MIC by broth microdilution, E. coli strain 25922; assay type: cell-based
Method in brief: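 CLSI broth microdilution in cation-adjusted Mueller-Hinton broth, inoculum about 5×10^5 CFU/mL, 10% DMSO from the diluted series, 20 h at 35-37° C. MIC is the lowest concentration preventing visible growth, read by eye and at 600 nm.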

E. coli containing KPC-2 = experiment: MIC by broth microdilution, E. coli containing KPC-2 (Ec KPC2 Iso); assay type: cell-based; conditions: Escherichia coli, read-out: Ec KPC2 Iso (MIC), E. coli containing KPC-2 (carbapenemase from Klebsiella pneumoniae)
Method in brief: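 Host E. coli BW25113 pspB carrying multicopy pBAD18-kan plasmid with constitutive TEM-promoter KPC-2 expression (periplasmic signal sequence); broth microdilution per CLSI in cation-adjusted Mueller-Hinton broth, inoculum ~5×10^5 CFU/mL, compounds twofold serially diluted from DMSO masters (10% DMSO in dilution series added).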

[1] = Escherichia coli, 25922, E. coli strain 25922, read-out: Ec 25922 (MIC)

| SMILES | MIC (E. coli strain 25922; [1]) | MIC (E. coli containing KPC-2) | MIC (E. coli strain 25922; Escherichia coli, 25922, read-out: Ec 25922 (MIC)) |
| --- | --- | --- | --- |
| CC(C)(O/N=C(\C(=O)N[C@@H]1C(=O)N(S(=O)(=O)O)[C@@H]1CN1C[C@H](CN)OC1=O)c1csc(N)n1)C(=O)O [Example 58, 2-(((Z)-(2-(((2R,3S)-2-(((S)-5-(aminomethyl)-2-oxooxazolidin-3-yl)methyl)-4-oxo-1-sulfoazetidin-3-yl)amino)-1-(2-aminothiazol-4-yl)-2-oxoethylidene)amino)oxy)-2-methylpropanoic acid] | 2 µg/mL (≈ 3.64 µM) | 1 µg/mL (≈ 1.82 µM) |  |
| Nc1nc(/C(=N/OCC(=O)O)C(=O)N[C@@H]2C(=O)N(S(=O)(=O)O)[C@@H]2CN2CCOC2=O)cs1 [Example 21, 2-(((Z)-(1-(2-aminothiazol-4-yl)-2-oxo-2-(((3S,4R)-2-oxo-4-((2-oxooxazolidin-3-yl)methyl)-1-sulfoazetidin-3-yl)amino)ethylidene)amino)oxy)acetic acid] | 0.25 µg/mL (≈ 0.508 µM) | 0.5 µg/mL (≈ 1.02 µM) |  |
| N=C(NCCCN)c1ccc(OC[C@H](O/N=C(\C(=O)N[C@@H]2C(=O)N(S(=O)(=O)O)[C@@H]2Cn2cncn2)c2csc(N)n2)C(=O)O)cc1 [Example 78, (S)-2-(((Z)-(2-(((2R,3S)-2-((1H-1,2,4-triazol-1-yl)methyl)-4-oxo-1-sulfoazetidin-3-yl)amino)-1-(2-aminothiazol-4-yl)-2-oxoethylidene)amino)oxy)-3-(4-(N-(3-aminopropyl)carbamimidoyl)phenoxy)propanoic acid] | ≤ 0.06 µg/mL | 0.125 µg/mL (≈ 0.184 µM) |  |
| CC(C)(O/N=C(\C(=O)N[C@@H]1C(=O)N(S(=O)(=O)O)[C@@H]1CN1CCN/C1=N\C#N)c1csc(N)n1)C(=O)O [Example 40, 2-(((Z)-(1-(2-aminothiazol-4-yl)-2-(((2R,3S)-2-(((E)-2-(cyanoimino)imidazolidin-1-yl)methyl)-4-oxo-1-sulfoazetidin-3-yl)amino)-2-oxoethylidene)amino)oxy)-2-methylpropanoic acid] | 2 µg/mL (≈ 3.68 µM) | 2 µg/mL (≈ 3.68 µM) |  |
| NCCNC[C@@H]1CN(C[C@@H]2[C@H](NC(=O)/C(=N\OC3(C(=O)O)CC3)c3csc(N)n3)C(=O)N2S(=O)(=O)O)C(=O)O1 [Example 97, 1-(((Z)-(2-(((2R,3S)-2-(((R)-5-(((2-aminoethyl)amino)methyl)-2-oxooxazolidin-3-yl)methyl)-4-oxo-1-sulfoazetidin-3-yl)amino)-1-(2-aminothiazol-4-yl)-2-oxoethylidene)amino)oxy)cyclopropanecarboxylic acid] |  | 0.125 µg/mL (≈ 0.212 µM) | 0.125 µg/mL (≈ 0.212 µM) |
| CC(C)(O/N=C(\C(=O)N[C@@H]1C(=O)N(S(=O)(=O)O)[C@@H]1CN1CCNC1=O)c1csc(N)n1)C(=O)O [Example 3, 2-(((Z)-(1-(2-aminothiazol-4-yl)-2-oxo-2-(((3S,4R)-2-oxo-4-((2-oxoimidazolidin-1-yl)methyl)-1-sulfoazetidin-3-yl)amino)ethylidene)amino)oxy)-2-methylpropanoic acid] | 2 µg/mL (≈ 3.85 µM) | 1 µg/mL (≈ 1.92 µM) |  |
| N=C(N)c1ccc(OC[C@H](O/N=C(\C(=O)N[C@@H]2C(=O)N(S(=O)(=O)O)[C@@H]2Cn2cncn2)c2csc(N)n2)C(=O)O)cc1 [Example 107, (S)-2-(((Z)-(2-(((2R,3S)-2-((1H-1,2,4-triazol-1-yl)methyl)-4-oxo-1-sulfoazetidin-3-yl)amino)-1-(2-aminothiazol-4-yl)-2-oxoethylidene)amino)oxy)-3-(4-carbamimidoylphenoxy)propanoic acid] | 0.25 µg/mL (≈ 0.402 µM) | 0.25 µg/mL (≈ 0.402 µM) |  |
| Cc1ncn(C[C@@H]2[C@H](NC(=O)/C(=N\OC(C)(C)C(=O)O)c3csc(N)n3)C(=O)N2S(=O)(=O)O)n1 [Example 60, 2-(((Z)-(1-(2-aminothiazol-4-yl)-2-(((2R,3S)-2-((3-methyl-1H-1,2,4-triazol-1-yl)methyl)-4-oxo-1-sulfoazetidin-3-yl)amino)-2-oxoethylidene)amino)oxy)-2-methylpropanoic acid] | 8 µg/mL (≈ 15.5 µM) | 8 µg/mL (≈ 15.5 µM) |  |
| N=C(NC1CCNCC1)c1ccc(OC[C@H](O/N=C(\C(=O)N[C@@H]2C(=O)N(S(=O)(=O)O)[C@@H]2Cn2cncn2)c2csc(N)n2)C(=O)O)cn1 [Example 79, (S)-2-(((Z)-(2-(((2R,3S)-2-((1H-1,2,4-triazol-1-yl)methyl)-4-oxo-1-sulfoazetidin-3-yl)amino)-1-(2-aminothiazol-4-yl)-2-oxoethylidene)amino)oxy)-3-((6-(N-(piperidin-4-yl)carbamimidoyl)pyridin-3-yl)oxy)propanoic acid] | 0.25 µg/mL (≈ 0.354 µM) | 0.25 µg/mL (≈ 0.354 µM) |  |
| Nc1nc(/C(=N/OC2(C(=O)O)CC2)C(=O)N[C@@H]2C(=O)N(S(=O)(=O)O)[C@@H]2Cn2ncc(CSC3Cn4cnc[n+]4C3)n2)cs1 (stereo partly drawn) [Example 139, (2R,3S)-3-((Z)-2-(2-aminothiazol-4-yl)-2-((1-carboxycyclopropoxy)imino)acetamido)-2-((4-(((6,7-dihydro-5H-pyrazolo[1,2-a][1,2,4]triazol-4-ium-6-yl)thio)methyl)-2H-1,2,3-triazol-2-yl)methyl)-4-oxoazetidine-1-sulfonate] | 1 µg/mL | 4 µg/mL |  |
| NCCCNCc1cnn(C[C@@H]2[C@H](NC(=O)/C(=N\OC3(C(=O)O)CC3)c3nsc(N)n3)C(=O)N2S(=O)(=O)O)n1 [Example 94, (((Z)-(1-(5-amino-1,2,4-thiadiazol-3-yl)-2-(((2R,3S)-2-((4-(((3-aminopropyl)amino)methyl)-2H-1,2,3-triazol-2-yl)methyl)-4-oxo-1-sulfoazetidin-3-yl)amino)-2-oxoethylidene)amino)oxy)cyclopropanecarboxylic acid] | 0.5 µg/mL (≈ 0.851 µM) | 1 µg/mL (≈ 1.7 µM) |  |
| Nc1nc(/C(=N/OC2(C(=O)O)CC2)C(=O)N[C@@H]2C(=O)N(S(=O)(=O)O)[C@@H]2CN2CCNC2=O)cs1 [Example 108, 1-(((Z)-(1-(2-aminothiazol-4-yl)-2-oxo-2-(((3S,4R)-2-oxo-4-((2-oxoimidazolidin-1-yl)methyl)-1-sulfoazetidin-3-yl)amino)ethylidene)amino)oxy)cyclopropanecarboxylic acid] | 0.125 µg/mL (≈ 0.242 µM) | ≤ 0.06 µg/mL |  |
| CC(C)(O/N=C(\C(=O)N[C@@H]1C(=O)N(S(=O)(=O)O)[C@@H]1Cn1cc(N)cn1)c1csc(N)n1)C(=O)O [Example 35, 2-(((Z)-(2-(((2R,3S)-2-((4-amino-1H-pyrazol-1-yl)methyl)-4-oxo-1-sulfoazetidin-3-yl)amino)-1-(2-aminothiazol-4-yl)-2-oxoethylidene)amino)oxy)-2-methylpropanoic acid] | 2 µg/mL (≈ 3.87 µM) | 1 µg/mL (≈ 1.94 µM) |  |
| CC(C)(O/N=C(\C(=O)N[C@@H]1C(=O)N(S(=O)(=O)O)[C@@H]1Cc1cc(CN)on1)c1csc(N)n1)C(=O)O [Example 82, 2-(((Z)-(2-(((2R,3S)-2-((5-(aminomethyl)isoxazol-3-yl)methyl)-4-oxo-1-sulfoazetidin-3-yl)amino)-1-(2-aminothiazol-4-yl)-2-oxoethylidene)amino)oxy)-2-methylpropanoic acid] | 0.5 µg/mL (≈ 0.941 µM) | 0.5 µg/mL (≈ 0.941 µM) |  |
| NCCCNC(=O)NCc1cnn(C[C@@H]2[C@H](NC(=O)/C(=N\OC3(C(=O)O)CC3)c3csc(N)n3)C(=O)N2S(=O)(=O)O)n1 [Example 136, 1-(((Z)-(2-(((2R,3S)-2-((4-((3-(3-aminopropyl)ureido)methyl)-2H-1,2,3-triazol-2-yl)methyl)-4-oxo-1-sulfoazetidin-3-yl)amino)-1-(2-aminothiazol-4-yl)-2-oxoethylidene)amino)oxy)cyclopropanecarboxylic acid] | 0.5 µg/mL (≈ 0.794 µM) | 0.5 µg/mL (≈ 0.794 µM) |  |
| NCc1cn(C[C@@H]2[C@H](NC(=O)/C(=N\OC3(C(=O)O)CC3)c3csc(N)n3)C(=O)N2S(=O)(=O)O)nn1 [Example 27, 1-(((Z)-(2-(((2R,3S)-2-((4-(aminomethyl)-1H-1,2,3-triazol-1-yl)methyl)-4-oxo-1-sulfoazetidin-3-yl)amino)-1-(2-aminothiazol-4-yl)-2-oxoethylidene)amino)oxy)cyclopropanecarboxylic acid] | ≤ 0.06 µg/mL | 0.125 µg/mL (≈ 0.236 µM) |  |
| CC(C)(O/N=C(\C(=O)N[C@@H]1C(=O)N(S(=O)(=O)O)[C@@H]1CN1C[C@H](CNC(=N)N)OC1=O)c1csc(N)n1)C(=O)O [Example 59, 2-(((Z)-(1-(2-aminothiazol-4-yl)-2-(((2R,3S)-2-(((S)-5-(guanidinomethyl)-2-oxooxazolidin-3-yl)methyl)-4-oxo-1-sulfoazetidin-3-yl)amino)-2-oxoethylidene)amino)oxy)-2-methylpropanoic acid] | 16 µg/mL (≈ 27 µM) | 16 µg/mL (≈ 27 µM) |  |
| CC(C)(O/N=C(\C(=O)N[C@@H]1C(=O)N(S(=O)(=O)O)[C@@H]1Cn1ncc(CNC(=N)N)n1)c1csc(N)n1)C(=O)O [Example 53, 2-(((Z)-(1-(2-aminothiazol-4-yl)-2-(((2R,3S)-2-((4-(guanidinomethyl)-2H-1,2,3-triazol-2-yl)methyl)-4-oxo-1-sulfoazetidin-3-yl)amino)-2-oxoethylidene)amino)oxy)-2-methylpropanoic acid] | 1 µg/mL (≈ 1.74 µM) | 1 µg/mL (≈ 1.74 µM) |  |
| CC(C)(O/N=C(\C(=O)N[C@@H]1C(=O)N(S(=O)(=O)O)[C@@H]1Cn1nccn1)c1csc(N)n1)C(=O)O [Example 54, 2-(((Z)-(2-(((2R,3S)-2-((2H-1,2,3-triazol-2-yl)methyl)-4-oxo-1-sulfoazetidin-3-yl)amino)-1-(2-aminothiazol-4-yl)-2-oxoethylidene)amino)oxy)-2-methylpropanoic acid] | 2 µg/mL (≈ 3.98 µM) | 1 µg/mL (≈ 1.99 µM) |  |
| CC(C)(O/N=C(\C(=O)N[C@@H]1C(=O)N(S(=O)(=O)O)[C@@H]1CN1CC[C@H](N)C1=O)c1csc(N)n1)C(=O)O [Example 76, 2-(((Z)-(2-(((2R,3S)-2-(((S)-3-amino-2-oxopyrrolidin-1-yl)methyl)-4-oxo-1-sulfoazetidin-3-yl)amino)-1-(2-aminothiazol-4-yl)-2-oxoethylidene)amino)oxy)-2-methylpropanoic acid] | 1 µg/mL (≈ 1.87 µM) | 0.5 µg/mL (≈ 0.937 µM) |  |
